Reference: ChEMBL document CHEMBL1201862, “PubChem BioAssay data set” (2004)
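1) Cells in 96-well plates. 2) Compound, 48 h, 5 concentrations. 3) Linear interpolation between surrounding doses. 4) Unreached endpoint = highest concentration. GI50 marks 50% less growth.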 Active and inactive are the calls of the source. No stated cut-off is given here; in the data, active = GI50 up to about 1.1 µM and inactive = higher.

Key:
Experiment in all cases: NCI anticancer screen, dose series, 48 h
HL-60 = system: HL-60
HCC 2998 = system: HCC 2998
HCT-15 = system: HCT-15
KM12 = system: KM12
NCI/ADR-RES = system: NCI/ADR-RES
NCI-H522 = system: NCI-H522
SNB-19 = system: SNB-19
LXFL 529 = system: LXFL 529
RXF 393 = system: RXF 393
MDA-MB-435 = system: MDA-MB-435
SNB-75 = system: SNB-75
MDA-MB-231 = system: MDA-MB-231
NCI-H460 = system: NCI-H460
M19-MEL = system: M19-MEL
LOX IMVI = system: LOX IMVI
DMS-273 = system: DMS-273
Malme-3M = system: Malme-3M
NCI-H226 = system: NCI-H226
DU-145 = system: DU-145
HOP-92 = system: HOP-92
SF-295 = system: SF-295
HOP-62 = system: HOP-62
COLO 205 = system: COLO 205
MDA-N = system: MDA-N
OVCAR-3 = system: OVCAR-3
U-251 = system: U-251
KM-20L2 = system: KM-20L2
TK-10 = system: TK-10
PC-3 = system: PC-3
T47D = system: T47D
SK-MEL-28 = system: SK-MEL-28
SW-620 = system: SW-620
M14 = system: M14
UACC-257 = system: UACC-257
XF498 = system: XF498
IGROV-1 = system: IGROV-1
UO-31 = system: UO-31
HT-29 = system: HT-29
SK-MEL-5 = system: SK-MEL-5
DLD-1 = system: DLD-1
UACC-62 = system: UACC-62
SK-OV-3 = system: SK-OV-3
OVCAR-4 = system: OVCAR-4
Hs-578T = system: Hs-578T
SF-268 = system: SF-268
OVCAR-8 = system: OVCAR-8
SNB-78 = system: SNB-78
BT-549 = system: BT-549
786-0 = system: 786-0
HCT-116 = system: HCT-116
A498 = system: A498
NCI-H23 = system: NCI-H23
SR = system: SR
MOLT-4 = system: MOLT-4
RPMI-8226 = system: RPMI-8226
CCRF-CEM = system: CCRF-CEM
MCF7 = system: MCF7
SN12C = system: SN12C
SF-539 = system: SF-539
OVCAR-5 = system: OVCAR-5
ACHN = system: ACHN
CAKI-1 = system: CAKI-1
SK-MEL-2 = system: SK-MEL-2
EKVX = system: EKVX
K562 = system: K562
A549 = system: A549
DMS-114 = system: DMS-114
HOP-18 = system: HOP-18

With N#CC(C#N)=C(N)/C(C#N)=C/c1cc(O)c(O)c(Br)c1 the GI50 (HL-60) was 28.1 µM (inactive), the GI50 (HCC 2998) was > 74 µM (inactive) and the GI50 (HCT-15) was 48.8 µM. The GI50 (KM12) was 75.9 µM (inactive), the GI50 (NCI/ADR-RES) was 36.4 µM (inactive) and the GI50 (NCI-H522) was 40.5 µM (inactive). The GI50 (SNB-19) was > 67.3 µM (inactive), the GI50 (LXFL 529) was 44.9 µM (inactive) and the GI50 (RXF 393) was > 100 µM (inactive). The GI50 (MDA-MB-435) was 78.5 µM (inactive), the GI50 (SNB-75) was 52.7 µM (inactive) and the GI50 (MDA-MB-231) was 88.5 µM (inactive). The GI50 (NCI-H460) was 38.1 µM (inactive), the GI50 (M19-MEL) was > 100 µM (inactive) and the GI50 (LOX IMVI) was 42 µM (inactive). For the same molecule, the GI50 (DMS-273) was 59.2 µM (inactive), the GI50 (Malme-3M) was 85.7 µM (inactive) and the GI50 (NCI-H226) was 21.1 µM (inactive). For the same molecule, the GI50 (DU-145) was 97.5 µM (inactive), the GI50 (HOP-92) was 46 µM (inactive) and the GI50 (SF-295) was > 82 µM (inactive). The GI50 (HOP-62) was > 69.7 µM (inactive), the GI50 (COLO 205) was 52.2 µM (inactive) and the GI50 (MDA-N) was 99.5 µM (inactive). The GI50 (OVCAR-3) was 27.5 µM (inactive), the GI50 (U-251) was 53 µM (inactive) and the GI50 (KM-20L2) was 31.7 µM (inactive). For the same molecule, the GI50 (TK-10) was > 100 µM (inactive), the GI50 (PC-3) was 92.5 µM (inactive) and the GI50 (T47D) was 32.7 µM (inactive). For the same molecule, the GI50 (SK-MEL-28) was > 100 µM (inactive), the GI50 (SW-620) was 51.6 µM (inactive) and the GI50 (M14) was > 75.9 µM (inactive). For the same molecule, the GI50 (UACC-257) was 72.4 µM (inactive), the GI50 (XF498) was 35.7 µM (inactive) and the GI50 (IGROV-1) was > 65.2 µM (inactive). The GI50 (UO-31) was 42.4 µM (inactive), the GI50 (HT-29) was 37.4 µM (inactive) and the GI50 (SK-MEL-5) was 60.3 µM (inactive). The GI50 (DLD-1) was 55.6 µM (inactive), the GI50 (UACC-62) was 39.4 µM (inactive) and the GI50 (SK-OV-3) was > 93.1 µM (inactive). For the same molecule, the GI50 (OVCAR-4) was 38.6 µM (inactive), the GI50 (Hs-578T) was 38.9 µM (inactive) and the GI50 (SF-268) was > 62.5 µM (inactive). The GI50 (OVCAR-8) was 48.1 µM (inactive), the GI50 (SNB-78) was 75.7 µM (inactive) and the GI50 (BT-549) was > 100 µM (inactive). The GI50 (786-0) was > 78.2 µM (inactive), the GI50 (HCT-116) was 37.8 µM (inactive) and the GI50 (A498) was > 100 µM (inactive). For the same molecule, the GI50 (NCI-H23) was > 100 µM (inactive), the GI50 (SR) was 37.8 µM (inactive) and the GI50 (MOLT-4) was 36.2 µM (inactive). For the same molecule, the GI50 (RPMI-8226) was > 100 µM (inactive), the GI50 (CCRF-CEM) was 28.2 µM (inactive) and the GI50 (MCF7) was 49.4 µM (inactive). The GI50 (SN12C) was > 69.3 µM (inactive), the GI50 (SF-539) was 44.1 µM (inactive) and the GI50 (OVCAR-5) was > 43.6 µM (inactive). The GI50 (ACHN) was 77.1 µM (inactive), the GI50 (CAKI-1) was > 100 µM (inactive) and the GI50 (SK-MEL-2) was 90.6 µM (inactive). The GI50 (EKVX) was 52.8 µM (inactive), the GI50 (K562) was 46.6 µM (inactive) and the GI50 (A549) was 59.4 µM (inactive). The GI50 (DMS-114) was 29.1 µM (inactive).

OC1/C(=C/c2ccccc2)CNC/C1=C\c1ccccc1 (stereo not given) was tested, and the GI50 (HL-60) was 92.7 µM (inactive), the GI50 (HCC 2998) was > 100 µM (inactive) and the GI50 (HCT-15) was over 100 µM. The GI50 (KM12) was > 100 µM (inactive), the GI50 (NCI-H522) was > 100 µM (inactive) and the GI50 (SNB-19) was > 100 µM (inactive). For the same molecule, the GI50 (LXFL 529) was > 100 µM (inactive), the GI50 (RXF 393) was > 100 µM (inactive) and the GI50 (SNB-75) was 75.7 µM (inactive). The GI50 (NCI-H460) was > 100 µM (inactive), the GI50 (M19-MEL) was > 100 µM (inactive) and the GI50 (LOX IMVI) was > 100 µM (inactive). The GI50 (DMS-273) was > 100 µM (inactive), the GI50 (Malme-3M) was > 100 µM (inactive) and the GI50 (HOP-92) was 96.8 µM (inactive). The GI50 (SF-295) was > 100 µM (inactive), the GI50 (HOP-62) was > 100 µM (inactive) and the GI50 (COLO 205) was > 100 µM (inactive). The GI50 (OVCAR-3) was > 100 µM (inactive), the GI50 (U-251) was > 100 µM (inactive) and the GI50 (KM-20L2) was > 100 µM (inactive). The GI50 (TK-10) was > 100 µM (inactive), the GI50 (SK-MEL-28) was > 100 µM (inactive) and the GI50 (SW-620) was > 100 µM (inactive). For the same molecule, the GI50 (M14) was > 100 µM (inactive), the GI50 (UACC-257) was > 100 µM (inactive) and the GI50 (IGROV-1) was > 100 µM (inactive). For the same molecule, the GI50 (UO-31) was 87.5 µM (inactive), the GI50 (HT-29) was 89.7 µM (inactive) and the GI50 (SK-MEL-5) was > 100 µM (inactive). The GI50 (DLD-1) was > 100 µM (inactive), the GI50 (UACC-62) was > 100 µM (inactive) and the GI50 (SK-OV-3) was > 100 µM (inactive). For the same molecule, the GI50 (OVCAR-4) was > 100 µM (inactive), the GI50 (SF-268) was > 100 µM (inactive) and the GI50 (OVCAR-8) was > 100 µM (inactive). For the same molecule, the GI50 (SNB-78) was > 100 µM (inactive), the GI50 (786-0) was > 100 µM (inactive) and the GI50 (HCT-116) was > 100 µM (inactive). For the same molecule, the GI50 (A498) was > 100 µM (inactive), the GI50 (SR) was > 100 µM (inactive) and the GI50 (MOLT-4) was > 100 µM (inactive). For the same molecule, the GI50 (RPMI-8226) was > 100 µM (inactive), the GI50 (CCRF-CEM) was 40.8 µM (inactive) and the GI50 (HOP-18) was > 100 µM (inactive). The GI50 (SN12C) was > 100 µM (inactive), the GI50 (SF-539) was > 100 µM (inactive) and the GI50 (OVCAR-5) was > 100 µM (inactive). The GI50 (ACHN) was > 100 µM (inactive), the GI50 (CAKI-1) was 43.1 µM (inactive) and the GI50 (EKVX) was > 100 µM (inactive). For the same molecule, the GI50 (A549) was > 100 µM (inactive) and the GI50 (DMS-114) was > 100 µM (inactive).
